Measurements from patent US20080063628A1, “METHODS TO PROMOTE CELL DIFFERENTIATION” (priority 2006, published 2008).

System: late passage (P11) pancreatic-derived stromal cell line
Assay: Two high dose trichostatin A treatments (first 48 h), gene expression by RT-PCR (Example 9);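 as to HNF-3 beta RT-PCR detection cycle: lower cycle number means higher gene expression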;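 as to glucagon RT-PCR detection cycle: lower cycle number means higher gene expression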
Format: cell-based, human
Details: for HNF-3 beta gene expression / Insulin gene expression / Pdx-1 gene expression / glucagon gene expression: 5 μM 0-48 h + 96-120 h; for HNF-3 beta RT-PCR detection cycle / Pdx-1 RT-PCR detection cycle / glucagon RT-PCR detection cycle: 5.0 μM
Method: Several cell lines obtained from different amniotic fluid specimens (see Example 14) and pancreas donors (see Example 13) were tested with similar results. Two lines at similar passage number but derived from different amniotic fluid specimens are shown in Table VIII-A and Table VIII-B for this example. One of these cell lines was also used in examples 2 and 4 above. In addition, this example also contains comparison data in Table VIII-C and Table VIII-D for a single pancreatic-derived stromal line grown to early and late passage number.
Amniotic fluid derived cells or pancreatic-derived stromal cells were seeded into 24-well tissue culture plates at a density of 5000/cm^2 and cultured in AMNIOMAX (Invitrogen) or DMEM with 10% FBS respectively under standard cell culture conditions until confluent. After reaching confluence, amniotic fluid derived cells were treated at time 0 hours with a dose of 1.25 μM trichostatin A, and pancreatic-derived stromal cells were treated with a dose of 5.0 μM trichostatin A solubilized in DMSO and medium. At time 48 hours, cell cultures underwent a complete medium change to remove all traces of trichostatin A. At time 96 hours, cell cultures were re-fed with fresh medium and received a second dose of trichostatin A at the same concentration as used previously. At time 120 hours, cell cultures again underwent a complete medium change and were cultured for an additional 24 hours or […] total incubation time. Samples were taken for RT-PCR at the times indicated in Table IX-A to D. RNA samples were obtained daily from the start of the experiment. Culture medium was removed, and cells were washed with PBS then collected in RLT with β-mercaptoethanol (Qiagen). RNA was purified using the RNeasy Mini Kit (Qiagen) and RNA quantity and quality was determined using a spectrophotometer. cDNA was made using the iScript cDNA synthesis kit (BioRad). Human pancreas cDNA was included as a control. Results were normalized against GAPDH expression levels.
Gene expression levels of Sox17, HNF-3 beta, Pdx-1, insulin, and glucagon were analyzed in amniotic-derived cells, while expression levels of glucagon, insulin, HNF-3 beta, and Pdx-1 were analyzed in pancreas-derived cells. Samples of 20 ng cDNA was used in each Real-Time PCR reaction. RT-PCR was performed on the Applied Biosystems 7500, according to the methods described in Example 15. The data were analyzed using the accompanying software.
Real-time PCR amplifcation and quantitative analysis. Unless otherwise stated, all reagents were purchased from Applied Biosystems. Real-time PCR reactions were performed using the ABI PRISM™ 7500 Sequence Detection System. TAQMAN™ FAST UNIVERSAL PCR MASTER MIX™ (ABI, CA) was used with 20 ng of reverse transcribed RNA in a total reaction volume of 20 μl. Each cDNA sample was run in duplicate to allow correction of pipetting errors. Primers and FAM-labeled TAQMAN™ probes were used at concentrations of 200 nM. The level of expression for each target gene was normalized using the pre-developed Applied Biosystem's human glyceraldehyde-3-phosphate dehydrogenase (GAPDH) endogenous control kit. Primers and probes were designed using either ABI PRISM PRIMER EXPRESS™ software or a pre-developed ABI gene analysis kit. For each gene, either one of the primers or the probe were designed to be exon-boundary spanning. This eliminated the possibility of the primers/probe binding to any genomic DNA present. The primer and probe sets are listed as follows: Pdx-1 (Hs00426216), Insulin (Hs00355773), glucagon (Hs00174967), and FoxA2 (HNF 3-beta) (Hs00232764). The remaining primers were designed using the PRIMERS program (ABI, CA). After an initial 95° C. incubation for 20 sec, samples were cycled 40 times in two stages: a denaturation step at 95° C. for 3 sec, followed by an annealing/extension step at 60° C. for 30 sec. […]

[1] = for 48 hours following addition
[2] = once trichostatin A was added again

In the case of `CC(/C=C/C(=O)NO)=C\[C@@H](C)C(=O)c1ccc(N(C)C)cc1` [trichostatin A], the “HNF-3 beta gene expression” value (24 hrs) is reported as “+++ (detectable at less than 35 cycles by RT-PCR with SE less than 0.9)”, the Insulin gene expression (24 hrs) is reported as “nd (not detectable at >40 cycles by RT-PCR)” and the Pdx-1 gene expression (24 hrs) is reported as “+ (detectable between 35 and 40 cycles by RT-PCR)”. For the same compound, the glucagon gene expression (24 hrs) was “+++ (detectable at less than 35 cycles by RT-PCR with SE less than 0.9)”, the “HNF-3 beta gene expression” value (48 hrs) was “+++ (detectable at less than 35 cycles by RT-PCR with SE less than 0.9)” and the Insulin gene expression (48 hrs) was “nd (not detectable at >40 cycles by RT-PCR)”. For the same compound, the Pdx-1 gene expression (48 hrs) was “+++ (detectable at less than 35 cycles by RT-PCR with SE less than 0.9)”, the glucagon gene expression (48 hrs) was “+++ (detectable at less than 35 cycles by RT-PCR with SE less than 0.9)” and the “HNF-3 beta gene expression” value (72 hrs) was “nd (not detectable at >40 cycles by RT-PCR)”. For the same compound, the Insulin gene expression (72 hrs) was “nd (not detectable at >40 cycles by RT-PCR)”, the Pdx-1 gene expression (72 hrs) was “nd (not detectable at >40 cycles by RT-PCR)” and the glucagon gene expression (72 hrs) was “+ (detectable between 35 and 40 cycles by RT-PCR)”. The “HNF-3 beta gene expression” value (96 hrs) was “nd (not detectable at >40 cycles by RT-PCR)”, the Insulin gene expression (96 hrs) was “nd (not detectable at >40 cycles by RT-PCR)” and the Pdx-1 gene expression (96 hrs) was “nd (not detectable at >40 cycles by RT-PCR)”. The glucagon gene expression (96 hrs) was “nd (not detectable at >40 cycles by RT-PCR)”, the “HNF-3 beta gene expression” value (120 hrs) was “+++ (detectable at less than 35 cycles by RT-PCR with SE less than 0.9)” and the Insulin gene expression (120 hrs) was “+ (detectable between 35 and 40 cycles by RT-PCR)”. The Pdx-1 gene expression (120 hrs) was “+++ (detectable at less than 35 cycles by RT-PCR with SE less than 0.9)”, the glucagon gene expression (120 hrs) was “+ (detectable between 35 and 40 cycles by RT-PCR)” and the “HNF-3 beta RT-PCR detection cycle” value (after addition) was 32 cycles. The “Pdx-1 RT-PCR detection cycle” value (after addition) was 31 cycles, the “glucagon RT-PCR detection cycle” value (after addition (for 48 hours)) was 33 cycles and the “glucagon RT-PCR detection cycle” value (following the removal) was 37 cycles. For the same compound, the “HNF-3 beta RT-PCR detection cycle” value [1] was 33 cycles, the “Pdx-1 RT-PCR detection cycle” value [1] was 32 cycles and the “HNF-3 beta RT-PCR detection cycle” value [2] was 34 cycles. The “Pdx-1 RT-PCR detection cycle” value [2] was 33 cycles and the “glucagon RT-PCR detection cycle” value (second treatment) was 35 cycles.
